Assay results published in US20120040920A1, “OLIGOSACCHARIDE ALDONIC ACIDS AND THEIR TOPICAL USE” (priority 1999, published 2012).

Key:
[1] = test system: scrotum and perineum itch; test: topical treatment of scrotum and perineum itch; format: in vivo, human; conditions: 18% oil-in-water cream pH 2.0, person
Description: Lactobionic acid 54% aqueous solution 30 g was uniformly mixed with an oil-in-water base 60 g. The cream thus prepared had pH 2.0 and contained 18% lactobionic acid.
A subject, having a lasting scrotum and perineum itch after each time taking a shower topically applied the above bionic acid cream to the affected areas of the skin.

[2] = test system: linear wounds 1 cm in length and 0.5 mm in depth; test: healing of linear needle wounds on forearm; format: in vivo, human; conditions: 2% in distilled water
Description: A sterile 22-gauge needle was held in the jaws of a surgical needle holder, and two linear wounds 1 cm in length and 0.5 mm in depth were made on alcohol-swabbed left forearm of a healthy subject. The wounds were swabbed dry with cotton balls. A control solution containing 0.9% sodium chloride in distilled water was applied to one wound, and a test solution containing 2% lactobionic acid in distilled water was applied to the other wound. Both wounds were covered with 3M Tegaderm tapes for five days. […] The erythema disappeared from both skin sites at the end of nine days.

[3] = gel matrix formation on evaporation of an aqueous solution at room temperature; format: physicochemical
Description: In contrast to an alpha hydroxyacid and polyhydroxyacid, an oligosaccharide aldonic acid can form a gel matrix when its aqueous solution is evaporated at room temperature. The transparent gel obtained retains certain amount of water forming a clear gel matrix. The amount of water retention depends on individual oligosaccharide aldonic acid. Examples of gel matrix preparations are provided below.
In one example, a gel matrix can be formed when aqueous solution comprising an oligosaccharide aldonic acid is evaporated at room temperature. The transparent gel thus obtained retains certain amount of water forming a clear gel matrix. The amount of water retention depends on individual oligosaccharide aldonic acid. For example, maltobionic acid 1 g in a beaker was dissolved in water 1 ml, and the solution thus obtained was left at room temperature. Fifty percent of the original water had been evaporated at the end of 24 hours, and 57% at the end of 48 hours, and 60% at the end of 72 hours, and no more or minimal evaporation of water could be detected after 72 hours. A clear gel film thus obtained contained 29% water complexed with maltobionic acid molecules. In the same manner, lactobionic acid formed a clear gel matrix with 14% water molecules and cellobionic acid formed a transparent gel with 7% water molecules.
A typical experiment to determine a gel matrix formation of an oligosaccharide aldonic acid may be carried out as follows.
Maltobionic acid 1 g in a beaker of 3.6 cm diameter and 3.6 cm height was dissolved in water 1 ml, and the solution thus obtained was left at room temperature between 20-25° C. to allow a slow evaporation of the water. […] The continuous transparent film thus obtained consisted of 71% maltobionic acid and 29% water by weight, and was formed as a complex gel matrix between maltobionic acid molecules and water molecules.

dry vaginal mucosa = test: topical treatment of dry vaginal mucosa; format: in vivo, human; conditions: 5% in molecular complex with 0.5% L-arginine, oil-in-water cream pH 3.1, twice daily, one week, person
Description: Lactobionic acid 50% aqueous solution 10 g was uniformly mixed with an oil-in-water base 80 g, and the cream thus obtained had pH 2.5. L-Arginine 5% solution 10 g prepared from 8 parts water and 2 parts propylene glycol by volume was added to form molecular complex of amphoteric system as shown by the increase of pH to 3.1. The composition thus formulated contained 5% lactobionic acid in molecular complex with 0.5% L-arginine.
A subject, having dry vaginal mucosa topically applied the above bionic acid cream twice daily to the affected areas of the mucosa.

[4] = by weight, 1 g acid in 1 ml water evaporated at room temperature

gel matrix formation ([3]; 1 g in 1 ml water, 20-25° C., slow evaporation): clear continuous gel film was formed | acid content of the gel film [3, 4]: 86% | water retained in the gel film (gel matrix) [3, 4]: 14%
SMILES: O=C(O)[C@H](O)[C@@H](O)[C@H](O[C@@H]1O[C@H](CO)[C@H](O)[C@H](O)[C@H]1O)[C@H](O)CO [lactobionic acid]
itch [1]: itch stopped immediately | wound healing ([2]; covered five days, end of one week, saline control not epithelialized): healed with re-epithelialization | time to disappearance of erythema ([2]; same at control site): nine | dryness of vaginal mucosa (dry vaginal mucosa): dryness of vaginal mucosa disappeared completely
